Molecular target: T1, recombinant human NAE enzyme (Homo sapiens, UniProt Q8TBC4)
T1 construct: His (N); made in house; host or cells: Sf9 insect cells (baculovirus, Bac-to-Bac), purified on Ni-NTA
T1 sequence (Q8TBC4 1-463): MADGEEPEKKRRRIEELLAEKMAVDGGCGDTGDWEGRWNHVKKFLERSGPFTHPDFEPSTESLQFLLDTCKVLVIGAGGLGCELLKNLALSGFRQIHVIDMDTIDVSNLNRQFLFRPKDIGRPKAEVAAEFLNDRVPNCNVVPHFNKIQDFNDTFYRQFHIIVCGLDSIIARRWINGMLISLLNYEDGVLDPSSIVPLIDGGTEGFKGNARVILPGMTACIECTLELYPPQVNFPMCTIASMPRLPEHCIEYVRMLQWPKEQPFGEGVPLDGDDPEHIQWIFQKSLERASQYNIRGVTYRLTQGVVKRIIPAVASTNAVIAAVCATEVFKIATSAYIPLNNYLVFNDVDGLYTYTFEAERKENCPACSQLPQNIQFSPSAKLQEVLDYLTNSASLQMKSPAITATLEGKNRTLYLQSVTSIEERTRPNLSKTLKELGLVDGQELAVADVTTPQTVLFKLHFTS
T1 sequence (Q13564 1-534 partner): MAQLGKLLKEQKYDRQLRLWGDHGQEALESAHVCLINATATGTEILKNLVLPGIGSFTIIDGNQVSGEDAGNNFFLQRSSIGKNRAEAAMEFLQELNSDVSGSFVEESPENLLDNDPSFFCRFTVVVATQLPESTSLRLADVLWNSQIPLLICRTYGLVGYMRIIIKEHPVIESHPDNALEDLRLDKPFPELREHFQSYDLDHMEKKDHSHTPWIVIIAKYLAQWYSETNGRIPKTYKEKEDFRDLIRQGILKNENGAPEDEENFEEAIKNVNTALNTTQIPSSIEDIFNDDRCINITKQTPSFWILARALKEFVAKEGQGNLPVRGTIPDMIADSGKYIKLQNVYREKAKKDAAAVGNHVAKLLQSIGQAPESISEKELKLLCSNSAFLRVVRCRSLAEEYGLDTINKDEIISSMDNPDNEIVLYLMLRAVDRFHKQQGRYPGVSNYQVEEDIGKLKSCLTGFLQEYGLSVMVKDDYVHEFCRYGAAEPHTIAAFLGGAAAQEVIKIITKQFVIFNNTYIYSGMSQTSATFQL
Experiment: Nedd8-Activating Enzyme (NAE) HTRF Assay
Assay type: biochemical
Details: threshold statement: less than or equal to 100 nM; 20 μM ATP, 90 minutes at 24° C.
Description: Following manufacturer instructions, baculoviruses were generated with the Bac-to-Bac Expression System (Invitrogen) for the following proteins: untagged NAEα (APPBP1; NP_003896.1), N-terminally His-tagged NAEβ (UBE1C; NP_003959.3), untagged SAEα (SAE1; NP_005491.1), N-terminally His-tagged SAEβ (UBA2; NP_005490.1), N-terminally His-tagged murine UAE (UBE1X; NP_033483). NAEα/His-NAEβ and SAEα/His-SAEβ complexes were generated by co-infection of Sf9 cells, which were harvested after 48 hours. His-mUAE was generated by single infection of Sf9 cells and harvested after 72 hours. Expressed proteins were purified by affinity chromatography (Ni—NTA agarose, Qiagen) using standard buffers. Ubc12 (UBE2M; NP_003960.1), Ubc9 (UBE2I; NP_003336.1), Ubc2 (UBE2A; NP_003327.2) were subcloned into pGEX (Pharmacia) and expressed as N-terminally GST tagged fusion proteins in E. coli. Expressed proteins were purified by conventional affinity chromatography using standard buffers. Nedd8 (NP_006147), Sumo-1 (NP_003343) and Ubiquitin (with optimized codons) were subcloned into pFLAG-2 (Sigma) and expressed as N-terminally Flag tagged fusion proteins in E. coli. Expressed proteins were purified by conventional chromatography using standard buffers. Nedd8-Activating Enzyme (NAE) HTRF Assay. The NAE enzymatic reaction totaled 50 μL and contained 50 mM HEPES (pH 7.5), 0.05% BSA, 5 mM MgCl2, 20 μM ATP, 250 μM GSH, 0.01 μM Ubc12-GST, 0.075 μM Nedd8-Flag and 0.28 nM recombinant human NAE enzyme. The enzymatic reaction mixture, with and without compound inhibitor, was incubated at 24° C. for 90 minutes in a 384-well plate before termination with 25 μL of Stop/Detection buffer (0.1M HEPES pH 7.5, 0.05% Tween20, 20 mM EDTA, 410 mM KF, 0.53 nM Europium-Cryptate labeled monoclonal anti-FLAG M2 antibody (CisBio International) and 8.125 μg/mL PHYCOLINK goat anti-GST allophycocyanin (XL-APC) antibody (Prozyme)). After incubation for 3 hours at 24° C., quantification of the FRET was performed on the Analyst™ HT 96.384 (Molecular Devices).

Structure (SMILES) | IC50 [µM]
C[C@@H](c1ccccc1)N(C)c1ncnc2c1ccn2[C@@H]1C[C@@H](COS(N)(=O)=O)[C@@H](O)C1 [Compound I-3, [(1S,2S,4R)-2-hydroxy-4-(4-{methyl[(1S)-1-phenylethyl]amino}-7H-pyrrolo-[2,3-d]pyrimidin-7-yl)cyclopentyl]methyl sulfamate] | ≤ 0.1
NS(=O)(=O)OC[C@@H]1C[C@@H](n2ccc3c(NCc4ccccc4OC(F)F)ncnc32)C[C@@H]1O [Compound I-2, [(1S,2S,4R)-4-(4-{[2-(difluoromethoxy)benzyl]amino}-7H-pyrrolo[2,3-d]-pyrimidin-7-yl)-2-hydroxycyclopentyl]methyl sulfamate] | ≤ 0.1
C#Cc1cn([C@@H]2C[C@@H](COS(N)(=O)=O)[C@@H](O)C2)c2ncnc(C)c12 [Compound I-44, [(1S,2S,4R)-4-(5-ethynyl-4-methyl-7H-pyrrolo[2,3-d]pyrimidin-7-yl)-2-hydroxycyclopentyl]methyl sulfamate] | ≤ 0.1
COC[C@@H]1Cc2ccccc2[C@@H]1Nc1ncnc2c1ccn2[C@@H]1C[C@@H](COS(N)(=O)=O)[C@@H](O)C1 [Compound I-79, [(1S,2S,4R)-2-hydroxy-4-(4-{[(1R,2R)-2-(methoxymethyl)-2,3-dihydro-1H-inden-1-yl]amino}-7H-pyrrolo[2,3-d]pyrimidin-7-yl)cyclopentyl]methyl sulfamate] | ≤ 0.1
NS(=O)(=O)OC[C@@H]1C[C@@H](n2cnc3c(NCc4ccc(Cl)cc4)ncnc32)C[C@@H]1O [Compound I-23, ((1S,2S,4R)-4-{6-[(4-chlorobenzyl)amino]-9H-purin-9-yl}-2-hydroxycyclopentyl)methyl sulfamate] | ≤ 0.1
NS(=O)(=O)OC[C@@H]1C[C@@H](n2ccc3c(N[C@H]4CCc5c(F)cccc54)ncnc32)C[C@@H]1O [Compound I-61, [(1S,2S,4R)-4-(4-{[(1S)-4-fluoro-2,3-dihydro-1H-inden-1-yl]amino}-7H-pyrrolo[2,3-d]pyrimidin-7-yl)-2-hydroxycyclopentyl]methyl sulfamate] | ≤ 0.1
NS(=O)(=O)OC[C@@H]1C[C@@H](n2ccc3c(NCc4ccc(C(F)(F)F)cc4)ncnc32)C[C@@H]1O [Compound I-8, [(1S,2S,4R)-2-hydroxy-4-(4-{[4-(trifluoromethyl)benzyl]amino}-7H-pyrrolo-[2,3-d]pyrimidin-7-yl)cyclopentyl]methyl sulfamate] | ≤ 0.1
Cc1cc(Cl)ccc1CNc1ncnc2c1ccn2[C@@H]1C[C@@H](COS(N)(=O)=O)[C@@H](O)C1 [Compound I-48, ((1S,2S,4R)-4-{4-[(4-chloro-2-methylbenzyl)amino]-7H-pyrrolo[2,3-d]pyrimidin-7-yl}-2-hydroxycyclopentyl)methyl sulfamate] | ≤ 0.1
NS(=O)(=O)OC[C@@H]1C[C@@H](n2ccc3c(NCc4ccccc4)ncnc32)C[C@@H]1O [Compound I-49, {(1S,2S,4R)-4-[4-(benzylamino)-7H-pyrrolo[2,3-d]pyrimidin-7-yl]-2-hydroxycyclopentyl}methyl sulfamate] | ≤ 0.1
NS(=O)(=O)OC[C@@H]1C[C@@H](n2ccc3c(NCc4c(F)cccc4F)ncnc32)C[C@@H]1O [Compound I-15, ((1S,2S,4R)-4-{4-[(2,6-dif1uorobenzyl)amino]-7H-pyrrolo[2,3-d]pyrimidin-7-yl}-2-hydroxycyclopentyl)methyl sulfamate] | ≤ 0.1
NS(=O)(=O)OC[C@@H]1C[C@@H](n2ccc3c(NCc4ccc(Cl)cc4C(F)(F)F)ncnc32)C[C@@H]1O [Compound I-42, [(1S,2S,4R)-4-(4-{[4-chloro-2-(trifluoromethyl)benzyl]amino}-7H-pyrrolo[2,3-d]-pyrimidin-7-yl)-2-hydroxycyclopentyl]methyl sulfamate] | ≤ 0.1
NS(=O)(=O)OC[C@@H]1C[C@@H](n2ccc3c(NCc4ccc(Cl)c(Cl)c4)ncnc32)C[C@@H]1O [Compound I-24, ((1S,2S,4R)-4-{4-[(3,4-dichlorobenzyl)amino]-7H-pyrrolo[2,3-d]pyrimidin-7-yl}-2-hydroxycyclopentyl)methyl sulfamate] | ≤ 0.1
NS(=O)(=O)OC[C@@H]1C[C@@H](n2ccc3c(NCc4cccc(Cl)c4)ncnc32)C[C@@H]1O [Compound I-51, ((1S,2S,4R)-4-{4-[(3-chlorobenzyl)amino]-7H-pyrrolo[2,3-d]pyrimidin-7-yl}-2-hydroxycyclopentyl)methyl sulfamate] | ≤ 0.1
NS(=O)(=O)OC[C@@H]1C[C@@H](n2ccc3c(N[C@@H]4CCc5c(Cl)cccc54)ncnc32)C[C@@H]1O [Compound I-63, [(1S,2S,4R)-4-(4-{[(1R)-4-chloro-2,3-dihydro-1H-inden-1-yl]amino}-7H-pyrrolo[2,3-d]pyrimidin-7-yl)-2-hydroxycyclopentyl]methyl sulfamate] | ≤ 0.1
NS(=O)(=O)OC[C@@H]1C[C@@H](n2ccc3c(N[C@H]4CCCc5ccccc54)ncnc32)C[C@@H]1O [Compound I-37, ((1S,2S,4R)-2-hydroxy-4-{4-[(1S)-1,2,3,4-tetrahydronaphthalen-1-ylamino]-7H-pyrrolo[2,3-d]pyrimidin-7-yl}cyclopentyl)methyl sulfamate] | ≤ 0.1
NS(=O)(=O)OC[C@@H]1C[C@@H](n2cc(F)c3c(NCc4ccccc4)ncnc32)C[C@@H]1O [Compound I-31, {(1S,2S,4R)-4-[4-(benzylamino)-5-fluoro-7H-pyrrolo[2,3-d]pyrimidin-7-yl]-2-hydroxycyclopentyl}methyl sulfamate] | ≤ 0.1
NS(=O)(=O)OC[C@@H]1C[C@@H](n2ccc3c(N[C@H]4CCc5cc(Cl)ccc54)ncnc32)C[C@@H]1O [Compound I-27, [(1S,2S,4R)-4-(4-}[(1S)-5-chloro-2,3-dihydro-1H-inden-1-yl]amino}-7H-pyrrolo-[2,3-d]pyrimidin-7-yl)-2-hydroxycyclopentyl]methyl sulfamate] | ≤ 0.1
NS(=O)(=O)OC[C@@H]1C[C@@H](n2ccc3c(NCc4cccc5ccccc45)ncnc32)C[C@@H]1O [Compound I-38, ((1S,2S,4R)-2-hydroxy-4-{4-[(1-naphthylmethyl)amino]-7H-pyrrolo[2,3-d]-pyrimidin-7-yl}cyclopentyl)methyl sulfamate] | ≤ 0.1
NS(=O)(=O)OC[C@@H]1C[C@@H](n2ccc3c(Nc4ccccc4)ncnc32)C[C@@H]1O [Compound I-39, [(1S,2S,4R)-4-(4-anilino-7H-pyrrolo[2,3-d]pyrimidin-7-yl)-2-hydroxycyclopentyl]methyl sulfamate] | ≤ 0.1
CN(c1ncnc2c1ccn2[C@@H]1C[C@@H](COS(N)(=O)=O)[C@@H](O)C1)[C@H]1CCc2ccccc21 [Compound I-6, ((1S,2S,4R)-4-{4-[(1S)-2,3-dihydro-1H-inden-1-yl(methyl)amino]-7H-pyrrolo-[2,3-d]pyrimidin-7-yl}-2-hydroxycyclopentyl)methyl sulfamate] | ≤ 0.1

Source: patent US8207177B2, “Inhibitors of E1 activating enzymes” (Millennium Pharmaceuticals, Inc., priority 2006, dated 2012)
